Consider two compounds from publication PMC6123363, “Functional Characterization of c-di-GMP Signaling-Related Genes in the Probiotic Lactobacillus acidophilus” (Frontiers in Microbiology, 2018).

The target in test [1] is T1, MBP-EALpdeB (EAL domain of PdeB) (Lactobacillus acidophilus, UniProt Q5FJ84).
T1 construct: gene LBA1415; EAL domain (residues 32-267, ELLLR motif, no N-terminal membrane targeting signal), MBP fusion in pMAL-c2, expressed in E. coli BL21, amylose column; MBP kept
T1 sequence (Q5FJ84 32-267): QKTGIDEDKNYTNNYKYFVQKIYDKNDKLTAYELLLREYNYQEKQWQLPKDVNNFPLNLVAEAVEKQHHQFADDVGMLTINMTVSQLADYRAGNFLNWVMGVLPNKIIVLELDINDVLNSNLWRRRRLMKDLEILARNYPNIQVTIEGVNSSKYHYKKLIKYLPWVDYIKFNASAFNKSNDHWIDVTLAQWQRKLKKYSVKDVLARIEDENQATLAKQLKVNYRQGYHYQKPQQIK
Description: equilibrium dialysis with HPLC quantification. In kind it is binding. For orientation: Equilibrium dialysis compares concentrations on both sides of a semipermeable membrane.

Test [2] has as its target T2, MBP-PdeA (Lactobacillus acidophilus, UniProt Q5FJ85).
T2 construct: gene LBA1414; pdeA (EAL domain only protein), MBP fusion in pMAL-c2, expressed in E. coli BL21, amylose column; MBP kept
T2 sequence (Q5FJ85 1-231): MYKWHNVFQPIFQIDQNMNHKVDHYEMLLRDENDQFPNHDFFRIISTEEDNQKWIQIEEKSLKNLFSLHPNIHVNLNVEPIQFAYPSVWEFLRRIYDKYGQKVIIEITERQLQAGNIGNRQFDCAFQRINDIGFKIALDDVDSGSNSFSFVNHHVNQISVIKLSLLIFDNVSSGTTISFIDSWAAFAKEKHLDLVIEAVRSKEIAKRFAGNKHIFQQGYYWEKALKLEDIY
Kind of test: PDE assay, reversed-phase HPLC. The format is biochemical. Particulars: 10 μM enzyme, 100 μM c-di-GMP, 5 mM MgCl2, 50 mM Tris-HCl pH 9.35, 37 °C.

In test [1], `Nc1nc2c(ncn2[C@@H]2O[C@@H]3COP(=O)(O)O[C@H]4[C@@H](O)[C@H](n5cnc6c(=O)[nH]c(N)nc65)O[C@@H]4COP(=O)(O)O[C@H]3[C@H]2O)c(=O)[nH]1` [c-di-GMP] returned a Kd of 4.87 ± 0.89 µM. In test [2], the “PDE assay, reversed-phase HPLC” value is given as “PdeA was able to hydrolyze c-di-GMP to pGpG”. As to `Nc1nc2c(ncn2[C@@H]2O[C@H](COP(=O)(O)O[C@H]3[C@@H](O)[C@H](n4cnc5c(=O)[nH]c(N)nc54)O[C@@H]3COP(=O)(O)O)[C@@H](O)[C@H]2O)c(=O)[nH]1` [pGpG], the “PDE assay, reversed-phase HPLC” value in test [2] is recorded as “The PdeA enzymatic reaction product corresponded to the retention time of the pGpG”.

In general, Kd refers to the equilibrium constant for the complex coming apart. A high value points to a looser complex.
